Experimental findings from patent publication US12091425B2 (AMGEN INC., priority 2016, dated 2024) are described below.

For test [1], the system named is OPM-2 human multiple myeloma cell line. Briefly: Cell Viability Assay (OPM-2 10 FBS). The format is cell-based. The following applies: OPM-2 cells, CellTiter-Glo. As to the method: Cell Viability Assay (OPM-2 10 FBS)
Cells were seeded into 384-well plates at 3000 cells/well density in complete growth medium containing 10% FBS, and incubated for 16 h with serially diluted test compounds in a 37° C. incubator with 5% CO2. Cell viability was tested using CellTiter-Glo® assay (Promega, Madison, WI) according to the manufacturer recommendations. Luminescence was determined using an EnVision® Multilabel plate reader 25 min after the addition of detection reagent. IC50 values were then calculated with Xlfit using a logistical 4-parameter fit model in GraphPad Prism (GraphPad Software, San Diego, CA) or in Genedata Screener® (Genedata, Basel, Switzerland).
On the technique in general: ATP-based viability assays read luminescence as a measure of living cells.

Test [2] addresses T1, Mcl-1/Bim interaction, recombinant human Mcl-1 (171-327) (Homo sapiens, UniProt Q07820).
T1 construct: made in house
Briefly: Cell free Mcl-1: Bim Affinity Assay (Mcl-1 HTRF). In kind it is binding. An outline of the steps: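 Biotin-Bim(51-76) peptide, TR-FRET readout, overnight incubation; IC50 from duplicate competition curves, 4-parameter fit.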
In general terms: TR-FRET usually uses a lanthanide donor and a delayed reading to cut background.

Where [3] appears, read: TR-FRET, 0.1 nM Mcl-1 (171-327), 0.05 nM biotin-Bim (51-76).
The mark [4] stands for this setting: cell free Mcl-1:Bim TR-FRET, recombinant human Mcl-1 (171-327).
Where [5] appears, read: Homo sapiens, OPM-2, 16 h, 16 h.

The structures appear in SMILES notation.

T1 sequence (Q07820 171-327): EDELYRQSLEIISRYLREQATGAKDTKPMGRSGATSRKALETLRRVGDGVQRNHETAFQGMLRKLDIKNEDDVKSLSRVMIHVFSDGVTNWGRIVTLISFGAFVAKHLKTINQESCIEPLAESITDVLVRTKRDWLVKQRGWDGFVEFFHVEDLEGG

The term IC50 denotes the concentration that gives 50% inhibition. For `C[C@@H]1CS(=O)(=O)NC(=O)c2ccc3c(c2)N(C[C@@H]2CC[C@H]2C(=O)/C=C/[C@@H]1C)C[C@@]1(CCCc2cc(Cl)ccc21)CO3` (single isomer, unassigned) [Example 1059], the IC50 amounted to 4.91 µM in test [1] (Homo sapiens, OPM-2, 16 h, 16 h incubation) and 0.0097 µM in test [2] (setting [3]).
Turning to `CC[C@@H]1CC/C=C/[C@H](O[C@H]2CCOC2=O)[C@@H]2CC[C@H]2CN2C[C@@]3(CCCc4cc(Cl)ccc43)COc3ccc(cc32)C(=O)NS1(=O)=O` (single isomer, unassigned) [Example 425], the IC50 in test [1] (16 h) is 0.304 µM; in test [2] (setting [3]) it was 0.0004 µM.
As for `C[C@H]1/C=C/[C@H](O)[C@@H]2CC[C@H]2CN2C[C@@]3(CCCc4cc(Cl)ccc43)COc3ccc(cc32)C(=O)NS(=O)(=O)[C@@H]2COC[C@H]21` (single isomer, unassigned) [Example 1058], the IC50 in test [1] (16 h incubation) came to 0.456 µM; in test [2] (setting [3]), 0.000249 µM.
On to `COCC[C@@H]1[C@@H](C)C/C=C/[C@H](O)[C@@H]2CC[C@H]2CN2C[C@@]3(CCCc4cc(Cl)ccc43)COc3ccc(cc32)C(=O)NS1(=O)=O` (single isomer, unassigned) [Example 393], for which the results for the IC50 in test [1] (16 h) and in test [2] (setting [3]) were 0.137 µM and 0.000213 µM, respectively.
`C[C@H]1C/C=C/[C@H](O)[C@@H]2CC[C@H]2CN2C[C@@]3(CCCc4cc(Cl)ccc43)COc3ccc(cc32)C(=O)NS(=O)(=O)N1Cc1ccccn1` (single isomer, unassigned) [Example 667]: the IC50 in test [1] (16 h) amounted to 0.378 µM; in test [2] (setting [4]), 0.000244 µM.
Consider `CO[C@@H]1/C=C/[C@H](O)[C@@H]2CC[C@H]2CN2C[C@@]3(CCCc4cc(Cl)ccc43)COc3ccc(cc32)C(=O)NS(=O)(=O)[C@@H](C)C1` (single isomer, unassigned) [Example 490], for which the half-inhibitory concentration (IC50) in test [1] (16 h) turned out to be 7.96 µM; in test [2] (setting [4]), 0.00209 µM.
In the case of `C[C@@H]1[C@@H](C)C/C=C/[C@H](OCCN2CCCCC2)[C@@H]2CC[C@H]2CN2C[C@@]3(CCCc4cc(Cl)ccc43)COc3ccc(cc32)C(=O)NS1(=O)=O` [Example 723, (1S,3′R,6′R,7′S,8′E,11′5,12′R)-6-chloro-11′,12′-dimethyl-7′-(2-(1-piperidinyl)ethoxy)-3,4-dihydro-2H,15′H-spiro[naphthalene-1,22′-[20]oxa[13]thia[1,14]diazatetracyclo[14.7.2.0^3,6.0^19,24]pentacosa [8,16,18,24]tetraen]-15′-one-13′, 13′-dioxide], the IC50 in test [1] (setting [5]) amounted to 0.138 µM; in test [2] (setting [4]), 0.000485 µM.
Consider `C[C@H]1C/C=C/[C@H](O)[C@@H]2CC[C@H]2CN2C[C@@]3(CCCc4cc(Cl)ccc43)COc3ccc(cc32)C(=O)NS(=O)(=O)N1C` [Example 83, (1S,3′R,6′R,7′S,8′E,11′S)-6-chloro-7′-hydroxy-11′,12′-dimethyl-3,4-dihydro-2H,15′H-spiro[naphthalene-1,22′-[20]oxa[13]thia[1,12,14]triazatetracyclo[14.7.2.0^3,6.0^19,24]pentacosa[8,16,18,24]tetraen]-15′-one 13′,13′-dioxide], for which the IC50 came to 0.487 µM in test [1] (setting [5]) and 0.000419 µM in test [2] (setting [3]).
With `C[C@@H]1C/C=C\[C@H](O)[C@@H]2CC[C@H]2CN2C[C@@]3(CCCc4cc(Cl)ccc43)COc3ccc(cc32)C(=O)NS(=O)(=O)N1C[C@H]1CCCO1` (single isomer, unassigned) [Example 56], the values for the half-inhibitory concentration (IC50) in test [1] (setting [5]) and in test [2] (setting [3]) were 1.79 µM and 0.00304 µM, respectively.
On to `CC(=O)N1CCN(CCO[C@H]2/C=C/C[C@H](C)[C@@H](C)S(=O)(=O)NC(=O)c3ccc4c(c3)N(C[C@@H]3CC[C@H]32)C[C@@]2(CCCc3cc(Cl)ccc32)CO4)CC1` [Example 733, (1S,3′R,6′R,7′S,8′E,11′S,12′R)-7′-(2-(4-acetyl-1-piperazinyl)ethoxy)-6-chloro-11′,12′-dimethyl-3,4-dihydro-2H,15′H-spiro[naphthalene-1,22′-[20]oxa[13]thia[1,14]diazatetracyclo [14.7.2.0^3,6.0^19,24]pentacosa[8,16,18,24]tetraen]-15′-one-13′, 13′-dioxide], for which the IC50 stood at 0.0697 µM in test [1] (setting [5]) and 0.000284 µM in test [2] (setting [4]).
